According to patent publication US4684650A, “Antihypertensive fluorophenylindanyl imidazolidinoneethylpiperazines” (priority 1984, dated 1987):
Like-named read-outs stand apart in the source and are kept apart here.

Key:
[1] = system: spontaneous hypertensive rats (SHR); test: Antihypertensive effect in spontaneous hypertensive rats (SHR); format: in vivo; settings: for change in vivo at 5 mg/kg / ED10: Rattus norvegicus, ip; for change in vivo at 5 mg/kg: 1 h
Procedure: Antihypertensive effect in spontaneous hypertensive rats (SHR)
The femoral artery of male SHR is cannulated in anaestesia for blood pressure recordings. After a stabilization period of 11/2 h after discontinuation of the anaesthesia initial blood pressure curves are recorded and the systolic (SAP)/diastolic (DAP) pressure determined (-20, -10, 0, min. p.i.) Test substance is injected i.p. and the pressure curve recorded for one hour. The change in SAP/DAP is calculated in percent at mean initial values at different times (10, 20, 30, 40, 50 and 60 minutes after injection). At least two SHR are used per dose level. The maximum change is used for estimation of the drug effect.

[2] = system: methylphenidate induced stereotypies; test: Methylphenidate Antagonism; format: in vivo, mice; settings: for ED50: Mus musculus, ip, read-out: MePh antg. ED50, i.p., mice, 2 hours before methylphenidate 60 mg/kg s.c.
Procedure: The experiments were made as described by Pedersen and Christensen (1972) Acta Pharmacol. et Toxicol. 31, 488-496.--Briefly, test compounds or saline were injected i.p. 2 hours before methylphenidate, 60 mg/kg s.c. 3 pairs of mice were used for each dose level. After methylphenidate injection the mice were placed in observation cages for one hour. The cages were placed on corrugated paper, the corrugation facing upwards.

[3] = system: phenylephrine pressor responses; test: Antagonism to phenylephrine pressor responses in pithed rats; format: in vivo; settings: for change in vivo at […] / ED50: Rattus norvegicus, iv; for change in vivo at […]: read-out: Effects on pressor response of Phenylephrine, % eff. of […], pithed rats, […], jugular vein, read-out: Effects on pressor response of Phenylephrine, % eff. of 0.31 mg/kg; for ED50: read-out: Effects on pressor response of Phenylephrine, ED50
Procedure: (§1) The rat is anaesthetized with ether, tracheotomized, artificial respired and pithed. The knitting-needle is introduced through the right orbita into the cranial cavity and passed through foramen magnum into the spinal canal as far as possible. The spinal cord is destroyed by turning the needle. After vagotomi both carotides are ligated and a catheter placed in the right one for pressure recording. The rat is adrenalectomized. […] The initial and post medication mean pressor effect is calculated, and the mean pressor effect is calculated as % of the initial value. Two to five preparations are employed for each dose level. The ED50 is determined.

[4] = system: 1-5-HTP-induced head shakes; test: 1-5-HTP-induced head shakes; format: in vivo; settings: Rattus norvegicus, sc, rats, 1-5-HTP 75 mg/kg i.p. after citalopram; read-out: 1-5-HTP-antg. ED50
Procedure: The rats were pretreated subcutaneously with test compound or saline simultaneously with or 90 min before injection of citalopram (10 mg/kg s.c.).
Each group consisted of 4-12 rats.

5-HT pressor responses = test: Antagonism to 5-HT pressor responses in pithed rats; format: in vivo; settings: for change in vivo at 0.02 mg/kg / ED50: Rattus norvegicus, iv
Procedure: as §1

5-HT2 receptors = molecular target: T1, 5-HT2 receptors (Rattus norvegicus, UniProt P14842); test: 3H-spiroperidol binding to 5-HT2 receptors; settings: rat whole cortex, 0.5 nM 3H-spiroperidol, 0.3 μM sulpiride; read-out: 3H-SPI binding 5-HT2 IC50
T1 construct: Rat whole cortex was homogenized by an Ultra Turrax homogenizer; from tissue; host or cells: rat whole cerebral cortex, crude washed membranes
Procedure: ^3 H-spiroperidol binding to 5-HT2 receptors.
Rat whole cortex was homogenized by an Ultra Turrax homogenizer in 100 vol. of 50 mM Tris buffer pH 7.7. The homogenate was centrifuged at 20,000 g for 10 minutes at 4° C. The pellet was rehomogenized in another volume of buffer and centrifuged as mentioned above. The final pellet was rehomogenized in 50 mM Tris buffer pH 7.7 containing 120 mM NaCl, 5 mM KCl, 2 mM CaCl2 and 1 mM MgCl2 (ion mix) in a volume corresponding to 12.5 mg original tissue per ml.
Test drugs were dissolved in water; ^3 H-spiroperidol (NEN, 28-30 Ci/mmol) was diluted in 3 μM sulpiride, and 800 μl membrane suspension were added. Final concentration of ligand and sulpiride were 0.5 nM and 0.3 μM, respectively. The samples were incubated at 37° C. for 10 min. The samples were then filtered under vacuum through Whatman GF/B glass-fiber filters. The tubes were then rinsed with 5 ml incubation buffer, which was poured on the filters. The filters were finally washed twice with 5 ml buffer and placed in counting vials. After addition of 5 ml scintillation fluid (Lumagel) radioactivity was estimated by liquid scintillation counting. Non-specific binding was obtained by adding Mianserin (1 μM) to separate samples. Each drug was tested at least twice at 5 concentrations in triplicate. IC50-values were determined from log concentration-response curves.--The presence of sulpiride excluded binding to dopamine D-2 receptors.

[5] = 5 mg/kg ip, diastolic pressure (DAP), max change within one hour, read-out: Antihypertensive eff. SHR, max eff. in % of 5 mg/kg ip, DAP
[6] = 5 mg/kg ip, systolic pressure (SAP), max change within one hour, read-out: Antihypertensive eff. SHR, max eff. in % of 5 mg/kg ip, SAP
[7] = pithed rats, 0.02 mg/kg, jugular vein, read-out: Effects on pressor response of 5-HT, % eff. of 0.02 mg/kg
[8] = read-out: Antihypertensive eff. SHR, max eff. in % of 5 mg/kg ip, DAP, 5 mg/kg ip, diastolic pressure (DAP), max change within one hour
[9] = read-out: Antihypertensive eff. SHR, max eff. in % of 5 mg/kg ip, SAP, 5 mg/kg ip, systolic pressure (SAP), max change within one hour
[10] = read-out: Effects on pressor response of 5-HT, % eff. of 0.02 mg/kg, pithed rats, 0.02 mg/kg, jugular vein
[11] = 5 mg/kg ip, diastolic pressure (DAP), max change within one hour
[12] = 5 mg/kg ip, systolic pressure (SAP), max change within one hour
[13] = pithed rats, 0.02 mg/kg, jugular vein

T1 sequence (P14842 whole entry): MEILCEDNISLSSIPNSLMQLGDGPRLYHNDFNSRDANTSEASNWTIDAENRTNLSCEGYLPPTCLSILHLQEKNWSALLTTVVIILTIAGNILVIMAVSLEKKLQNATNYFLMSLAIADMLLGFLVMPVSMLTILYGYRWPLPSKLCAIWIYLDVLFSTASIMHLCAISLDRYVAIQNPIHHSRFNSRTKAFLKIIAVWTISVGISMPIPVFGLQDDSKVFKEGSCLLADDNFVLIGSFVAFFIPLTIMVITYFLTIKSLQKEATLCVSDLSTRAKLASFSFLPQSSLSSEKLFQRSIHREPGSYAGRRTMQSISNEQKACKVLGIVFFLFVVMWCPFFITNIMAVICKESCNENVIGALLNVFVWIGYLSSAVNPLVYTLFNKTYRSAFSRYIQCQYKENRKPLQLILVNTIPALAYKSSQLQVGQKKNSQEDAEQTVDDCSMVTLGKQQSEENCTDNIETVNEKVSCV

Compound | change in vivo at 5 mg/kg [1, 5] [%] | change in vivo at 5 mg/kg [1, 6] [%] | ED50 [2] [µmol/kg] | change in vivo at […] [3] [%] | ED50 [4] [µmol/kg] | change in vivo at 0.02 mg/kg (5-HT pressor responses; [7]) [%] | change in vivo at 5 mg/kg [1, 8] [%] | change in vivo at 5 mg/kg [1, 9] [%] | IC50 (5-HT2 receptors) [nM] | change in vivo at 0.02 mg/kg (5-HT pressor responses; [10]) [%] | further results
CC(C)c1ccc2c(c1)[C@H](N1CCN(CCN3CCNC3=O)CC1)C[C@H]2c1ccc(F)cc1 (relative stereo) [compound 5] | -10 | -9 | 24 | -33 | 1.7 | -6 | – | – | – | – | –
O=C1NCCN1CCN1CCN([C@@H]2C[C@@H](c3ccc(F)cc3)c3ccc(C(F)(F)F)cc32)CC1 (relative stereo) [compound 6] | – | – | 1.8 | – | 0.29 | – | -14 | -10 | 9.9 | -52 | –
O=C1OCCN1CCN1CCN([C@@H]2C[C@@H](c3ccc(F)cc3)c3ccccc32)CC1 (relative stereo) [compound 7] | -19 | -15 | > 83 | -18 | 2.7 | -4 | – | – | – | – | –
O=C1OCCN1CCN1CCN([C@@H]2C[C@@H](c3ccc(F)cc3)c3ccc(F)cc32)CC1 (relative stereo) [compound 8] | -26 | -20 | 18 | -19 | 1.3 | -40 | – | – | – | – | ED50 ([3]; pithed rats, jugular vein): 4.35 µmol/kg; Phenylephr. antg./5-HT antg. (ratio) ([3]; pithed rats, ratio of phenylephrine ED50 to 5-HT ED50): 52; ED50 (5-HT pressor responses; pithed rats, jugular vein, read-out: Effects on pressor response of 5-HT, ED50): 0.084 µmol/kg
CN1CCN(CCN2CCN([C@@H]3C[C@@H](c4ccc(F)cc4)c4ccccc43)CC2)C1=O (relative stereo) [compound 11] | – | – | > 80 | – | 1.4 | – | -8 | -6 | 13 | -81 | –
CCN1CCN(CCN2CCN([C@@H]3C[C@@H](c4ccc(F)cc4)c4ccc(F)cc43)CC2)C1=O (relative stereo) [compound 12] | – | – | > 75 | – | 0.092 | – | 4 | 4 | 4.9 | -94 | peripheral or central action ([1]; in words): marked central effects
O=C1OCCN1CCCN1CCN([C@@H]2C[C@@H](c3ccc(F)cc3)c3ccc(F)cc32)CC1 (relative stereo) [compound 15] | -18 | -12 | 39 | -7 | 0.31 | -31 | – | – | – | – | –
O=c1[nH]c2ccccc2c(=O)n1CCN1CCN([C@H]2C[C@H](c3ccc(F)cc3)c3ccccc32)CC1 (relative stereo) [compound 19] | – | – | > 70 | – | – | – | – | – | – | – | Antihypertensive eff. SHR, max eff. in % of 5 mg/kg ip, DAP [1, 11]: -27%; Antihypertensive eff. SHR, max eff. in % of 5 mg/kg ip, SAP [1, 12]: -22%; Effects on pressor response of Phenylephrine, % eff. of […] ([3]; pithed rats, jugular vein): -42%; Effects on pressor response of 5-HT, % eff. of 0.02 mg/kg (5-HT pressor responses; [13]): -35%
Fc1ccc([C@@H]2C[C@@H](N3CCN(CCN4CCCNC4=S)CC3)c3cc(F)ccc32)cc1 (relative stereo) [compound 26] | – | – | – | – | 0.11 | – | -19 | -13 | 7.7 | -67 | –
O=C1NCCN1CCN1CCN([C@@H]2C[C@@H](c3ccc(F)cc3)c3ccc(Cl)cc32)CC1 (single isomer, unassigned) [-20] | – | – | – | – | < 8.4 | – | – | – | – | – | Antihypertensive eff. SHR, max eff. in % of 5 mg/kg ip, DAP [1, 11]: -16%; Antihypertensive eff. SHR, max eff. in % of 5 mg/kg ip, SAP [1, 12]: -7%; MePh antg. ED50 ([2]; i.p., mice, 2 hours before methylphenidate 60 mg/kg s.c.): > 67 µmol/kg; Effects on pressor response of Phenylephrine, % eff. of […] ([3]; pithed rats, jugular vein): +21%; Effects on pressor response of 5-HT, % eff. of 0.02 mg/kg (5-HT pressor responses; [13]): -11%
O=C(c1ccc(F)cc1)C1CCN(CCn2c(=O)[nH]c3ccccc3c2=O)CC1 [Ketanserin, reference compound] | – | – | 101 | – | 0.58 | – | -24 | -32 | – | -46 | ED10 ([1]; read-out: Antihypertensive eff. SHR, ED10 DAP): 1.2 µmol/kg; ED10 ([1]; read-out: Antihypertensive eff. SHR, ED10 SAP): 1.6 µmol/kg; ED50 [3]: 3.6 µmol/kg; ED50 (5-HT pressor responses; read-out: Effects on pressor response of 5-HT, ED50, pithed rats, jugular vein): 0.033 µmol/kg
